Source: patent publication US10280169B2, “Biaryl bruton's tyrosine kinase inhibitors” (BIOGEN MA INC., priority 2013, dated 2019)

Tests used:
BTK = target: T1, BTK (Homo sapiens, UniProt Q06187); test: In vitro BTK kinase assay: BTK-POLYGAT-LS assay; type: biochemical; settings: 10 uM ATP, read-out: IC50 (10 uMATP)
T1 construct: purchased Upstate 14-552

pBTK = target: T2, pBTK (Homo sapiens, UniProt Q06187); test: In vitro PD assay in whole blood (pBTK assay); type: cell-based; settings: 30 min at 37° C.
T2 construct: Heparinized venous blood was purchased from Bioreclamation, Inc. or SeraCare Life Sciences; tissue Bioreclamation, Inc. or SeraCare Life Sciences; host or cells: heparinized venous whole blood
T2 sequence (Q06187 whole entry): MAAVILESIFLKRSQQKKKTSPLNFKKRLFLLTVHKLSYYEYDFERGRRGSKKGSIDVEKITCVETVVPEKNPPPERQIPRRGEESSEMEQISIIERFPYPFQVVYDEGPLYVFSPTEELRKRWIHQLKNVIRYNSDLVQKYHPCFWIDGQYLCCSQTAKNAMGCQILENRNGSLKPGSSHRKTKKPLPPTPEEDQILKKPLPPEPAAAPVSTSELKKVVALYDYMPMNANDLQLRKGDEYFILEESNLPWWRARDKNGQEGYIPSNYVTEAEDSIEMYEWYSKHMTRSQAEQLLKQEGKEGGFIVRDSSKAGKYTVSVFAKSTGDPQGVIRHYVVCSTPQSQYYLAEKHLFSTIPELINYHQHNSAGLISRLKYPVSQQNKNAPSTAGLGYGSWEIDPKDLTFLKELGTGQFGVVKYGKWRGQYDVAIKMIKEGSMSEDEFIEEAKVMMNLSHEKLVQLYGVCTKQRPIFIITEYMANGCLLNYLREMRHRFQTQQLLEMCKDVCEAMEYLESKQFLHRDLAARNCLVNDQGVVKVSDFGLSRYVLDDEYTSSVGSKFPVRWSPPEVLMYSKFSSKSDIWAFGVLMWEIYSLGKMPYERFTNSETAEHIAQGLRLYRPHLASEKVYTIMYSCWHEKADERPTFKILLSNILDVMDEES
Protocol: Heparinized venous blood was purchased from Bioreclamation, Inc. or SeraCare Life Sciences and shipped overnight. Whole blood was aliquoted into 96-well plate and “spiked” with serial dilutions of test compound in DMSO or with DMSO without drug. The final concentration of DMSO in all wells was 0.1%. The plate was incubated at 37° C. for 30 min. Lysis buffer containing protease and phosphatase inhibitors was added to the drug-containing samples and one of the DMSO-only samples (+PPi, high control), while lysis buffer containing protease inhibitors was added to the other DMSO-only samples (−PPi, low control). All of the lysed whole blood samples were subjected to the total BTK capture and phosphotyrosine detection method described in Example 30. ECL values were graphed in Prism and a best-fit curve with restrictions on the maximum and minimum defined by the +PPi high and −PPi low controls was used to estimate the test compound concentration that results in 50% inhibition of ECL signal by interpolation.
In some instances where a compound tested has activity “D”, other structurally similar compounds beyond the measurable limits of the assay are not included in Table 2.

T1 sequence (Q06187 whole entry): as above

| Compound | IC50 (BTK) | IC50 (pBTK) |
| --- | --- | --- |
| Cc1cc(-c2ncnc3cc(-c4cnn(C)c4)[nH]c23)ccc1C(C)NC(=O)c1cnc(C(C)(C)C)s1 (stereo not shown) [Example I-46, 2-(tert-butyl)-N-(1-(2-methyl-4-(6-(1-methyl-1H-pyrazol-4-yl)-5H-pyrrolo[3,2-d]pyrimidin-4-yl)phenyl)ethyl)thiazole-5-carboxamide] | < 10 nM | < 500 nM |
| CC(C)(C)c1csc(C(=O)NC2CCCc3cc(-c4ncnc5[nH]ncc45)ccc32)n1 (stereo in doubt) [Example I-100, (R)—N-(6-(1H-pyrazolo[3,4-d]pyrimidin-4-yl)-1,2,3,4-tetrahydronaphthalen-1-yl)-4-(tert-butyl)thiazole-2-carboxamide] | < 10 nM | 1500 to 10000 nM |
| Cc1cc(-c2ncnc3[nH]ncc23)ccc1CNC(=O)c1nc2c(s1)CCCC2 [Example I-119, 4,5,6,7-Tetrahydro-benzothiazole-2-carboxylic acid 2-methyl-4-(1H-pyrazolo[3,4-d]pyrimidin-4-yl)-benzylamide] | < 10 nM | 1500 to 10000 nM |
| Cc1cc(-c2ncnc3[nH]c(C4=CCS(=O)(=O)CC4)cc23)ccc1CNC(=O)c1cnc(C(C)(C)C)s1 [Example I-21, 2-(tert-butyl)-N-(4-(6-(1,1-dioxido-3,6-dihydro-2H-thiopyran-4-yl)-7H-pyrrolo[2,3-d]pyrimidin-4-yl)-2-methylbenzyl)thiazole-5-carboxamide] | < 10 nM | < 500 nM |
| Cc1cc(-c2ncnc3[nH]ccc23)ccc1CNC(=O)c1ccc(C(C)(C)C)cn1 [Example I-1, 5-(tert-butyl)-N-(2-methyl-4-(7H-pyrrolo[2,3-d]pyrimidin-4-yl)benzyl)picolinamide] | < 10 nM | 1500 to 10000 nM |
| O=C(NCc1ccc(-c2ncnc3[nH]ccc23)cc1C(F)(F)F)c1nc2c(s1)CCCC2 [Example I-122, N-(4-(7H-pyrrolo[2,3-d]pyrimidin-4-yl)-2-(trifluoromethyl)benzyl)-4,5,6,7-tetrahydrobenzo[d]thiazole-2-carboxamide] | 10 to 99 nM | 1500 to 10000 nM |
| Cc1cc(-c2ncnc3[nH]ncc23)ccc1CNC(=O)c1cc2c(s1)CCCC2 [Example I-85, N-(2-methyl-4-(1H-pyrazolo[3,4-d]pyrimidin-4-yl)benzyl)-4,5,6,7-tetrahydrobenzo[b]thiophene-2-carboxamide] | < 10 nM | 1500 to 10000 nM |
| Cc1cc(-c2ncnc3cc(-c4cnn(C)c4)[nH]c23)ccc1CNC(=O)N1CC(OC(C)C)C1 [Example I-43, 3-isopropoxy-N-(2-methyl-4-(6-(1-methyl-1H-pyrazol-4-yl)-5H-pyrrolo[3,2-d]pyrimidin-4-yl)benzyl)azetidine-1-carboxamide] | < 10 nM | 500 to 1500 nM |
| Cc1cc(-c2ncnc3[nH]c(-c4cnn(C)c4)cc23)ccc1C(C)NC(=O)c1cnc(C(C)(C)C)s1 (stereo not shown) [Example I-112, 2-(tert-butyl)-N-(1-(2-methyl-4-(6-(1-methyl-1H-pyrazol-4-yl)-7H-pyrrolo[2,3-d]pyrimidin-4-yl)phenyl)ethyl)thiazole-5-carboxamide] | < 10 nM | < 500 nM |
| O=C(NC1CCCc2cc(-c3ncnc4[nH]ncc34)ccc21)c1ccc(C(F)(F)F)c(Cl)c1 (stereo not shown) [Example I-92, N-(6-(1H-pyrazolo[3,4-d]pyrimidin-4-yl)-1,2,3,4-tetrahydronaphthalen-1-yl)-3-chloro-4-(trifluoromethyl)benzamide] | 100 to 999 nM |  |
| Cc1cc(-c2ncnc3[nH]ccc23)cnc1CNC(=O)c1cc2c(s1)CCCC2 [Example I-153, N-((3-methyl-5-(7H-pyrrolo[2,3-d]pyrimidin-4-yl)pyridin-2-yl)methyl)-4,5,6,7-tetrahydrobenzo[b]thiophene-2-carboxamide] | 10 to 99 nM |  |
| CC(NC(=O)c1cc2c(s1)CCCC2)c1ccc(-c2ncnc3[nH]ncc23)cc1C(F)(F)F (stereo not shown) [Example I-135, N-(1-(4-(1H-pyrazolo[3,4-d]pyrimidin-4-yl)-2-(trifluoromethyl)phenyl)ethyl)-4,5,6,7-tetrahydrobenzo[b]thiophene-2-carboxamide] | 10 to 99 nM |  |
| Cc1cc(-c2ncnc3cc(C4CCS(=O)(=O)CC4)[nH]c23)ccc1CNC(=O)c1cnc(C(C)(C)C)s1 [Example I-23, 2-(tert-butyl)-N-(4-(6-(1,1-dioxidotetrahydro-2H-thiopyran-4-yl)-5H-pyrrolo[3,2-d]pyrimidin-4-yl)-2-methylbenzyl)thiazole-5-carboxamide] | < 10 nM |  |
| CC(C)(C)c1ccc(C(=O)NC2COCc3cc(-c4ncnc5[nH]ccc45)ccc32)cc1 (stereo not shown) [Example I-83, N-(7-(7H-pyrrolo[2,3-d]pyrimidin-4-yl)isochroman-4-yl)-4-(tert-butyl)benzamide] | 1000 to 10000 nM |  |
| Cc1cc(-c2ncnc3cc(-c4cnn(C)c4)n(C)c23)ccc1CNC(=O)c1cnc(C(C)(C)C)s1 [Example I-38, 2-(tert-butyl)-N-(2-methyl-4-(5-methyl-6-(1-methyl-1H-pyrazol-4-yl)-5H-pyrrolo[3,2-d]pyrimidin-4-yl)benzyl)thiazole-5-carboxamide] | < 10 nM |  |

Second part, the compound after the results:

| IC50 (BTK) | IC50 (pBTK) | Compound |
| --- | --- | --- |
| < 10 nM | 1500 to 10000 nM | O=C(N[C@H]1CCCc2cc(-c3ncnc4[nH]ccc34)ccc21)c1cc2c(s1)CCCC2 [Example I-89, (S)—N-(6-(7H-Pyrrolo[2,3-d]pyrimidin-4-yl)-1,2,3,4-tetrahydronaphthalen-1-yl)-4,5,6,7-tetrahydrobenzo[b]thiophene-2-carboxamide] |
| < 10 nM | 1500 to 10000 nM | Cc1cc(-c2ncnc3[nH]ccc23)ccc1C(C)NC(=O)c1cc2c(s1)CCCC2 (stereo not shown) [Example I-78, N-(1-(2-methyl-4-(7H-pyrrolo[2,3-d]pyrimidin-4-yl)phenyl)ethyl)-4,5,6,7-tetrahydrobenzo[b]thiophene-2-carboxamide] |
| < 10 nM | < 500 nM | Cc1cc(-c2ncnc3nc(N4CCN(C)CC4)[nH]c23)ccc1CNC(=O)c1cnc(C(C)(C)C)s1 [Example I-47, 2-(tert-butyl)-N-(2-methyl-4-(8-(4-methylpiperazin-1-yl)-7H-purin-6-yl)benzyl)thiazole-5-carboxamide] |
| < 10 nM | 500 to 1500 nM | Cn1cc(-c2cc3c(-c4ccc5c(c4)CCCC5NC(=O)c4cc5c(s4)CCOC5)ncnc3[nH]2)cn1 (stereo not shown) [Example I-35, N-(6-(6-(1-methyl-1H-pyrazol-4-yl)-7H-pyrrolo[2,3-d]pyrimidin-4-yl)-1,2,3,4-tetrahydronaphthalen-1-yl)-6,7-dihydro-4H-thieno[3,2-c]pyran-2-carboxamide] |
| < 10 nM | < 500 nM | Cc1cc(-c2ncnc3cc(C4=CCN(C(=O)N(C)C)CC4)[nH]c23)ccc1CNC(=O)c1ncc(C(C)(C)C)s1 [Example I-18, 5-(tert-butyl)-N-(4-(6-(1-(dimethylcarbamoyl)-1,2,3,6-tetrahydropyridin-4-yl)-5H-pyrrolo[3,2-d]pyrimidin-4-yl)-2-methylbenzyl)thiazole-2-carboxamide] |
| < 10 nM |  | Cc1cc(-c2ncnc3nc(N4CC(N(C)C)C4)[nH]c23)ccc1CNC(=O)c1cnc(C(C)(C)C)s1 [Example I-53, 2-(tert-butyl)-N-(4-(8-(3-(dimethylamino)azetidin-1-yl)-7H-purin-6-yl)-2-methylbenzyl)thiazole-5-carboxamide] |
| < 10 nM |  | Cc1cc(-c2ccnc3[nH]ncc23)ncc1CNC(=O)c1cc2c(s1)CCCC2 [Example I-117, N-((4-methyl-6-(1H-pyrazolo[3,4-b]pyridin-4-yl)pyridin-3-yl)methyl)-4,5,6,7-tetrahydrobenzo[b]thiophene-2-carboxamide] |
| 100 to 999 nM |  | CCC(NC(=O)c1cc2c(s1)CCCC2)c1ccc(-c2ncnc3[nH]ncc23)cc1 (stereo not shown) [Example I-143, N-(1-(4-(1H-pyrazolo[3,4-d]pyrimidin-4-yl)phenyl)propyl)-4,5,6,7-tetrahydrobenzo[b]thiophene-2-carboxamide] |
| 10 to 99 nM |  | O=C(NCc1ccc(-c2ncnc3[nH]ccc23)cc1)c1cc2ccccc2s1 [Example I-61, N-(4-(7H-pyrrolo[2,3-d]pyrimidin-4-yl)benzyl)benzo[b]thiophene-2-carboxamide] |
| < 10 nM |  | Cc1cc(-c2ncnc3nc(N4CCC(C(=O)O)C4)[nH]c23)ccc1CNC(=O)c1cnc(C(C)(C)C)s1 (stereo not shown) [Example I-51, 1-(6-(4-((2-(tert-butyl)thiazole-5-carboxamido)methyl)-3-methylphenyl)-7H-purin-8-yl)pyrrolidine-3-carboxylic acid] |
| 10 to 99 nM |  | O=C(NC1CCCc2cc(-c3ncnc4[nH]ncc34)ccc21)c1ccc(C(F)(F)F)cc1 (stereo not shown) [Example I-97, N-(6-(1H-pyrazolo[3,4-d]pyrimidin-4-yl)-1,2,3,4-tetrahydronaphthalen-1-yl)-4-(trifluoromethyl)benzamide] |
| < 10 nM |  | Cn1cc(-c2cc3ncnc(-c4ccc5c(c4)CCCC5NC(=O)c4cnc(C(C)(C)C)s4)c3[nH]2)cn1 (stereo not shown) [Example I-37, 2-(tert-butyl)-N-(6-(6-(1-methyl-1H-pyrazol-4-yl)-5H-pyrrolo[3,2-d]pyrimidin-4-yl)-1,2,3,4-tetrahydronaphthalen-1-yl)thiazole-5-carboxamide] |
| < 10 nM |  | Cc1cc(-c2ncnc3[nH]ncc23)ccc1C(C)NC(=O)c1cc2c(s1)CCCC2 (stereo not shown) [Example I-121, N-(1-(2-methyl-4-(1H-pyrazolo[3,4-d]pyrimidin-4-yl)phenyl)ethyl)-4,5,6,7-tetrahydrobenzo[b]thiophene-2-carboxamide] |
| 100 to 999 nM |  | O=C(NCc1ccc(-c2ncnc3[nH]ccc23)cc1)c1ccc(C(F)(F)F)cn1 [Compound I-146] |
